Measurements from patent US20050208036A1, “Methods for treating or preventing GVHD” (University of North Carolina at Chapel Hill, priority 2003, published 2005).
Where “and” joins values, the source holds several entries; their conditions need not be identical. Equal values may be shown once.

Key:
[1] = tested on: donor CD4+ T cells from C57BL/6 mice with irradiated bm12 splenocytes; test: Mixed lymphocyte reaction (MLR): proliferative response of T cells to alloantigen, 3H-thymidine incorporation; assay type: cell-based, mouse
Description: (§1) A bulk MLR was prepared by combining donor CD4^+ T cells obtained from C57BL/6 (H-2^b) mice (National Institutes of Health, Bethesda, Md., U.S.A.) in a 1:1 ratio with T cell-depleted, irradiated splenocytes obtained from bm12 (H-2^bm12), MHC class II disparate mice (The Jackson Laboratory, Bar Harbor, Me., U.S.A.). An anti-CD40L monoclonal antibody (hybridoma MR1, hamster IgG), obtained by culturing the hybridoma in 10% FBS/DMEM in an Accusyst Jr. hollow fiber bioreactor (Cellex Biosciences, Minneapolis, Minn., U.S.A.), was added to the bulk MLR culture and the cells were incubated for 7-10 days. Proliferative responses of the T cells to alloantigen were determined on days 2, 4, 5, 6, and 7 by measuring ^3H-thymidine incorporation into newly synthesized DNA. The antibody removed from the cultures by washing three times with 2% FBS/PBS, and aliquots of the cells (0.3×10^5, 10^5, and 3×10^5 cells) were administered in 0.5 mL DMEM by tail vein injection to bm12 mice subjected to a sublethal dose (6.0 Gy) of total body irradiation. Control irradiated mice received the same amounts of cells from MLR that had not been exposed to anti-CD40L. The mice were monitored for GVHD lethality, weight changes, and packed cell volume (PCV). Cells remaining from the primary MLR were mixed with fresh bm12 splenocytes for a secondary MLR, and proliferative responses to allogen were measured on days 1 through 5. Aliquots of the secondary MLR cultures were subsequently administered to irradiated bm12 mice.
An MLR culture was prepared consisting of a 1:1 ratio of CD4+ T cells obtained from C57BL/6 mice and T cell-depleted, irradiated MHC class II-disparate stimulators obtained from bm12 mice. PS1145, a potent inhibitor of IκB kinase and thus NF-κB activation, was added to the MLR culture at concentrations of 0.2 μM, 0.6 μM, 1 μM, 2 μM, 6 μM, and 10 μM. Control MLR cultures were left untreated or were treated with DMSO. […] This hyporesponsiveness persisted after washing of the T cells and re-exposure to alloantigen. As with anti-CD40L treated MLR, alloantigen hyporesponsiveness was reversed by addition of 50 U/mL exogenous IL-2 (FIG. 7).
(§2) The tolerance induced by PS1145 was specific to alloantigen, as responses to non-specific mitogens remained largely intact.
CD4^+ CD25^+ cells were required in cultures tolerized by anti-CD40L. To determine whether CD25^+ T cells, which express the high-affinity IL-2 receptor a chain (IL-2Rα), were required for PS 1145 induction of tolerance, CD25^+-depleted T cells were used in primary and secondary MLR. […] Similarly, CD4^+ CD25^+ T cells were not required for tolerance induction by PS1145 in secondary cultures.

[2] = tested on: bm12 mice; test: GVHD lethality after transfer of MLR cells into sublethally irradiated MHC class II disparate recipients; assay type: in vivo, mouse
Description: as §1
CD4^+ T cells that were allowed to recover from a vehicle-treated 7 day MLR were uniformly fatal upon adoptive transfer into sublethally irradiated MHC class-II disparate recipients, whereas T cells subjected to ex vivo PS1145 treatment were lethal to only 22% of recipients. Mice were intravenously injected with either 10^5 naïve T cells, 10^5 cells from 7 day control MLR or 10^5 cells from MLR exposed to 6 μM or 10 μM PS1145 for 7 days. […] Thus, the NF-κB pathway is a critical regulator of T cell responses, and provides an ex vivo approach to inducing alloantigen-specific tolerance as a means of preventing GVHD.

[3] = tested on: alloreactive transgenic T cells; test: T cell apoptosis in MLR of alloreactive and non-alloreactive transgenic T cells, Annexin V binding; assay type: cell-based; settings: 10 μM, 1:1 alloreactive and non-alloreactive transgenic T cells
Description: as §2

[4] = tested on: TNF-α; test: LPS-induced TNF-α expression in mice, ELISA; assay type: in vivo, B6 and BALB/c mice; settings: 1 μg/kg LPS; 10, 25 or 50 mg/kg oral; 24-72 hours post-treatment; vs controls
Description: (§3) B6 and BALB/c mice were given 1 μg/kg of LPS, after which they orally received either control methylcellulose or PS1145 in methylcellulose. Animals were evaluated for expression of the cytokine TNF-α and the chemokine MIP-1α (CCL3) at 24-72 hours post-treatment, as assessed by ELISA.

[5] = tested on: MIP-1α (CCL3); test: LPS-induced MIP-1α (CCL3) expression in mice, ELISA; assay type: in vivo, B6 and BALB/c mice; settings: 1 μg/kg LPS; 10, 25 or 50 mg/kg oral; 24-72 hours post-treatment; vs controls
Description: as §3

[6] = tested on: B6D2 recipient mice; test: Murine stem cell transplant GVHD model, survival; assay type: in vivo, mouse
Description: A murine stem cell transplant model was developed in which bone marrow was removed from B6 (H2^b) donors. The marrow was depleted of T cells by incubation with an anti-Thy 1.2 monoclonal antibody coupled to magnetic beads, followed by removal of T cells that bound the antibody using a magnetic column. Thy 1.2^+ T cells were isolated from splenocytes using a similar approach and were added back to the bone marrow. Animals received between 1-5×10^6 T cells and 3×10^6 bone marrow cells after lethal irradiation. The T cell-depleted marrow was transplanted into B6D2H2^bxd recipient mice that had been subjected to a lethal dose of irradiation (8.5 Gy). Recipient mice were divided into six groups, three of which received 1 mg PS1145 starting on day −2, day 0, or day 6 relative to transplant. The other three groups received methylcellulose as a control, starting on day −2, 0, or 6. PS1145 suspended in methylcellulose or methylcellulose alone was administered daily by gavage, through day 14. Mice were evaluated every three days for weight loss, GVHD, and outcome. […] Treatment with PS1145 that started on day 6 was correlated with an earlier death (all mice were dead by about day 12) as compared to treatment that started on day 0 (all mice were dead by about day 28). All mice in the methylcellulose control group were dead by day 20.
In a similar experiment, recipient mice were subjected to 1125 cGy of irradiation and then treated with oral doses of 5 mg/kg methylcellulose or PS1145. In this case, however, all animals in both groups were dead by about day 42 post-transplant (FIG. 12). […] Thus, the use of PS1145 to ameliorate GVHD via an oral route was not effective using very heavy doses of irradiation.
Experiments also were performed in which 5 mg/kg PS1145 or methylcellulose was given intraperitoneally (i.p.) to mice starting on day −2 and ending on day 14 post-transplantation. B6D2 mice that had received 850 cGy of irradiation were injected with 3×10^6 bone marrow cells from B6 donors and 5×10^6 selected B6 T cells.

[7] = tested on: TNF-α; test: TNF-α levels in colon and small intestine after transplant, cytokine bead assay; assay type: in vivo, mouse; settings: 5 mg/kg i.p. on days −1 and −2, days 3-18, vs untreated
Description: (§4) Expression of TNF-α and MIP-1α (CCL3) was evaluated in mice treated i.p. with PS1145 and subjected to transplantation of T cell-depleted bone marrow with Thy 1-selected splenocytes as a source of T cells. Mice in the test group received 5 mg/kg PS1145 on days −1 and −2 relative to transplant, while control animals were untreated. Animals were sacrificed from days 3-18 for assessment of TNF-α levels in the colon and small intestine and MIP-1α levels in the liver. A cytokine bead assay was used to measure levels of these factors. […] While TNF-α levels in control animals increased from day 3 to day 18, the level was relatively constant in animals exposed to PS1145.

[8] = tested on: MIP-1α (CCL3); test: MIP-1α levels in liver after transplant, cytokine bead assay; assay type: in vivo, mouse; settings: 5 mg/kg i.p. on days −1 and −2, days 3-18, vs untreated
Description: as §4

[9] = biological target: NEMO (Homo sapiens, UniProt Q9Y6K9); test: NBD mutants: ability to bind to NEMO; assay type: binding
[10] = 5 mg/kg i.p. day −2 to day 14, 850 cGy
[11] = oral 5 mg/kg, 1125 cGy irradiation

NEMO, sequence (Q9Y6K9 whole entry, species assumed): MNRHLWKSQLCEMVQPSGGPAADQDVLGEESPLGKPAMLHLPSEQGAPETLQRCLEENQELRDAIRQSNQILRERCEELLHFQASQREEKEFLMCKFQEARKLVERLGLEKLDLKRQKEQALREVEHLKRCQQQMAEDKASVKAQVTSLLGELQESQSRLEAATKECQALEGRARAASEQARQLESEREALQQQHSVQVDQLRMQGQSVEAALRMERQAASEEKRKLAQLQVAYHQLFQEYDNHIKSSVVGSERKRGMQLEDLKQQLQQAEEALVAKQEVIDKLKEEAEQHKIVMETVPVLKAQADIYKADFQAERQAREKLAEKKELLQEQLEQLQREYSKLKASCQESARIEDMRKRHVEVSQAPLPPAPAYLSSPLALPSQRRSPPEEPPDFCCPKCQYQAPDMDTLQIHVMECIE

O=C(Nc1cc(Cl)cc2c1[nH]c1cnccc12)c1cccnc1 [PS1145] was tested, and the “response on re-exposure to allogeneic APC” value ([1]; 10 μM, re-exposed to allogeneic APC) was “remained hyporesponsive”, the “proliferation after secondary stimulus of CD3+ and CD28+ cells” value ([1]; 10 μM, secondary stimulus CD3+ and CD28+ cells) was “comparable to controls” and the “alloantigen hyporesponsiveness with exogenous IL-2” value ([1]; 50 U/mL exogenous IL-2 added) was “reversed”. For the same compound, the “T cell proliferation in response to alloantigen” value ([1]; MLR treated with 6 μM and 10 μM) was “reduced level of proliferation”, the “hyporesponsiveness after washing of the T cells and re-exposure to alloantigen” value ([1]; after washing, re-exposure to alloantigen) was “persisted” and the “Long term survival (>90 days)” value ([2]; 10^5 cells i.v. from MLR exposed to 6 μM for 7 days) was “five of eight and 5/8”. For the same compound, the “Long term survival (>90 days)” value ([2]; 10^5 cells i.v. from MLR exposed to 10 μM for 7 days) was “nine of ten and 9/10”, the “recipients to which treated T cells were lethal” value ([2]; T cells treated ex vivo, adoptive transfer) was 22% and the long-term survival rate ([2]; recipients of donor T cells treated ex vivo) was 78%. The “rate of T cell apoptosis” value [3] was “increased the rate of T cell apoptosis selectively in alloreactive cells”, the TNF-α expression [4] was “markedly reduced” and the “MIP-1α (CCL3) expression” value [5] was “markedly reduced”. The “day by which all mice were dead” value ([6]; 1 mg daily by gavage from day 0 through day 14, 8.5 Gy) was roughly 28 days, the “day by which all mice were dead” value ([6]; 1 mg daily by gavage from day 6 through day 14, 8.5 Gy) was roughly 12 days and the “mice surviving at least through day 50” value ([6]; 1 mg daily by gavage from day −2 through day 14, 8.5 Gy) was “about 20%”. The “Survival Day 30” value [6, 10] was 7/10, the “Survival Day 60” value [6, 10] was 5/10 and the “survival of B6D2 mice” value [6, 10] was 50%. For the same compound, the “day post-transplant by which all animals were dead” value [6, 11] was roughly 42 days, the “survival time compared with methylcellulose group” value [6, 11] was “little difference” and the “TNF-α expression in colon and small intestine” value [7] was “significantly decreased”. The “MIP-1α levels in the liver” value [8] was “Analogous results”.
With “ADWSWL (Hexapeptide variant of human IKK-beta NBD (SEQ ID NO2) having A in the 1st position.) [NBD mutant]” the “Binds to NEMO” value [9] was “Yes”.
In the case of “LAWSWL (Hexapeptide variant of human IKK-beta NBD (SEQ ID NO2) having A in the 2nd position.) [NBD mutant]”, the “Binds to NEMO” value [9] was “No”.
With “LDASAL (Hexapeptide variant of human IKK-beta NBD (SEQ ID NO2) having A in the 3rd and 5th positions.) [NBD mutant]” the “Binds to NEMO” value [9] was “No”.
For “LDASWL (Hexapeptide variant of human IKK-beta NBD (SEQ ID NO2) having A in the 3rd position.) [NBD mutant]”, the “Binds to NEMO” value [9] was “No”.
“LDFSWL (Hexapeptide variant of human IKK-beta NBD (SEQ ID NO2) having F in the 3rd position.) [NBD mutant]” was tested, and the “Binds to NEMO” value [9] was “Yes”.
For LDSWSL (listed as Homo sapiens), the “Binds to NEMO” value [9] was “Yes”.
For “LDWAWL (Hexapeptide variant of human IKK-beta NBD (SEQ ID NO2) having A in the 4th position.) [NBD mutant]”, the “Binds to NEMO” value [9] was “Yes”.
For “LDWEWL (Hexapeptide variant of human IKK-beta NBD (SEQ ID NO2) having E in the 4th position.) [NBD mutant]”, the “Binds to NEMO” value [9] was “Yes”.
With “LDWSAL (Hexapeptide variant of human IKK-beta NBD (SEQ ID NO2) having A in the 5th position.) [NBD mutant]” the “Binds to NEMO” value [9] was “No”.
For “LDWSFL (Hexapeptide variant of human IKK-beta NBD (SEQ ID NO2) having F in the 5th position.) [NBD mutant]”, the “Binds to NEMO” value [9] was “Yes”.
For “LDWSWA (Hexapeptide variant of human IKK-beta NBD (SEQ ID NO2) having A in the 6th position.) [NBD mutant]”, the “Binds to NEMO” value [9] was “Yes”.
“LDWSYL (Hexapeptide variant of human IKK-beta NBD (SEQ ID NO2) having Y in the 5th position.) [NBD mutant]” was tested, and the “Binds to NEMO” value [9] was “No”.
In the case of “LDYSWL (Hexapeptide variant of human IKK-beta NBD (SEQ ID NO2) having Y in the 3rd position.) [NBD mutant]”, the “Binds to NEMO” value [9] was “Yes”.
“LEWSWL (Hexapeptide variant of human IKK-beta NBD (SEQ ID NO2) having E in the 2nd position.) [NBD mutant]” was tested, and the “Binds to NEMO” value [9] was “Yes”.
In the case of “LNWSWL (Hexapeptide variant of human IKK-beta NBD (SEQ ID NO2) having N in the 2nd position.) [NBD mutant]”, the “Binds to NEMO” value [9] was “Yes”.
